These results are taken from publication PMC11859264, “Discovery of a Novel Multitarget Analgesic Through an In Vivo-Guided Approach” (Pharmaceuticals, 2025).

The first assay has as its system formalin model. The experiment in a line: Formalin test in mice (primary in vivo screening and ED50). The arrangement: species or system ICR male mice. The following applies: Mus musculus, ip; mice, intraperitoneal, doses 0.1, 1, 5 and 10 mg/kg, second phase; read-out: ED50 in the second phase of the formalin model. As for the experimental part: For primary screening, the synthesized compounds were administered to mice via intraperitoneal injection at a dose of 5 mg/kg using the formalin model. The percentage inhibition in the second phase, relative to the vehicle control (DMSO/cremophor EL/distilled water = 10:10:80), was calculated.
Each compound was assessed using four doses (0.1, 1, 5, and 10 mg/kg) by intraperitoneal injection.
ICR male mice weighing 23–25 g was purchased from Samtako Korea (Osan, Republic of Korea). ICR mice were housed four per cage in a room with 12 h light–dark cycles. The temperature and relative humidity of the room were maintained at 22 ± 2 °C and 50 ± 5%, respectively. Food and water were available ad libitum. The procedures for animal testing were approved by Medifron Animal Care and Use Committees (Approval number; Medifron 2019-9). Efforts were made to minimize animal suffering and to reduce the number of animals used.
Mice were randomly assigned to five groups (four per group) and single-dose drugs were administered by intraperitoneal injection. The formalin-induced licking paw test was modified from the method described by Dubuisson and Dennis. Each mouse was acclimated to an acrylic observation chamber for at least 30 min before the injection of formalin. Twenty microliters of 2% formalin were injected subcutaneously into the right side of the hind paw. Each mouse was then placed in an individual clear plastic observational chamber (15 × 15 × 15 cm, volume = […] or 3.375 L), and the pain response was recorded for a period of 30 min. The summation of time (in seconds) spent in licking and biting responses of the injected paw during each 5 min block was measured as an indicator of the pain response. The first period (early phase) was recorded 0–5 min after the injection of formalin, and the second period (late phase) was recorded 20–30 min after the injection. The test compound was administered intraperitoneally 30 min before the formalin injection at […]: 0.1, 1, 5, and 10 mg/kg. The vehicle was DMSO/Cremophor EL/distilled water (10/10/80). The data were expressed as the mean ± standard error of the mean (SEM). Statistical analysis was assessed by one-way analysis of variance (ANOVA) with Bonferroni’s post hoc test. Statistical significance was set at p-value < 0.05, with values of p <0.001 considered highly significant.
Broadly, the ED50 is the dose that gives a 50% effect, or the effect in half of the subjects. Turning to `N#Cc1ccc2[nH]cc(C(=O)NCCN3CCN(c4cccc(Cl)c4)CC3)c2c1` [Compound 21, N-(2-(4-(3-Chlorophenyl)piperazin-1-yl)ethyl)-5-cyano-1H-indole-3-carboxamide], the ED50 is 2.3 mg/kg. On the same count and under the same terms, in the case of `N#Cc1ccc2[nH]cc(C(=O)NCCN3CCN(c4cccc(C(F)(F)F)c4)CC3)c2c1` [Compound 22, 5-Cyano-N-(2-(4-(3-(trifluoromethyl)phenyl)piperazin-1-yl)ethyl)-1H-indole-3-carboxamide] it was 1.3 mg/kg; in that of `Cc1ccc(Sc2ccccc2N2CCN(CCNC(=O)c3c[nH]c4ccc(C#N)cc34)CC2)c(C)c1` [Compound 31, 5-Cyano-N-(2-(4-(2-((2,4-dimethylphenyl)thio)phenyl)piperazin-1-yl)ethyl)-1H-indole-3-carboxamide], 2.66 mg/kg.

The same assay, now with this note: mice, 5 mg/kg intraperitoneal, second phase.
Turning to `N#Cc1ccc2[nH]cc(C(=O)NCCN3CCN(c4cccc(F)c4)CC3)c2c1` [Compound 20, 5-Cyano-N-(2-(4-(3-fluorophenyl)piperazin-1-yl)ethyl)-1H-indole-3-carboxamide], the “% Inhibition in the second phase of the formalin model relative to vehicle control” value is reported as 3.1%. The same measure, in the same setting: in the case of `N#Cc1ccc2[nH]cc(C(=O)NCCN3CCN(c4ccc(F)cc4)CC3)c2c1` [Compound 23, 5-Cyano-N-(2-(4-(4-fluorophenyl)piperazin-1-yl)ethyl)-1H-indole-3-carboxamide] it was 35.8%; in that of `N#Cc1ccc2[nH]cc(C(=O)NCCN3CCN(c4ccc(Cl)cc4)CC3)c2c1` [Compound 24, N-(2-(4-(4-Chlorophenyl)piperazin-1-yl)ethyl)-5-cyano-1H-indole-3-carboxamide], 1.6%; in that of `N#Cc1ccc2[nH]cc(C(=O)NCCN3CCN(c4ccc(C(F)(F)F)cc4)CC3)c2c1` [Compound 25, 5-Cyano-N-(2-(4-(4-(trifluoromethyl)phenyl)piperazin-1-yl)ethyl)-1H-indole-3-carboxamide], 19.8%. On the same count and under the same terms, in the case of `N#Cc1ccc2[nH]cc(C(=O)NCCN3CCN(c4cccc(C(F)(F)F)n4)CC3)c2c1` [Compound 26, 5-Cyano-N-(2-(4-(6-(trifluoromethyl)pyridin-2-yl)piperazin-1-yl)ethyl)-1H-indole-3-carboxamide] it was 48.6%; in that of `N#Cc1ccc2[nH]cc(C(=O)NCCN3CCN(c4ncccc4Cl)CC3)c2c1` [Compound 27, N-(2-(4-(3-Chloropyridin-2-yl)piperazin-1-yl)ethyl)-5-cyano-1H-indole-3-carboxamide], 48.0%; in that of `N#Cc1ccc2[nH]cc(C(=O)NCCN3CCN(c4ccc5oc(C(N)=O)cc5c4)CC3)c2c1` [Compound 30, N-(2-(4-(2-Carbamoylbenzofuran-5-yl)piperazin-1-yl)ethyl)-5-cyano-1H-indole-3-carboxamide], 23.8%. The same measure, in the same setting: with `N#Cc1ccc2[nH]cc(C(=O)NCCN3CCN(c4nsc5ccccc45)CC3)c2c1` [Compound 32, N-(2-(4-(Benzo[d]isothiazol-3-yl)piperazin-1-yl)ethyl)-5-cyano-1H-indole-3-carboxamide] the figure was 14.3%. As to `N#Cc1ccc2[nH]cc(C(=O)NCCN3CCN(C(=O)c4ccc(F)cc4)CC3)c2c1` [Compound 33, 5-Cyano-N-(2-(4-(4-fluorobenzoyl)piperazin-1-yl)ethyl)-1H-indole-3-carboxamide], the “% Inhibition in the second phase of the formalin model relative to vehicle control” value is given as 24.2%. Same read-out and setting: with `N#Cc1ccc2[nH]cc(C(=O)NCCN3CCN(C(=O)c4cccc(C(F)(F)F)c4)CC3)c2c1` [Compound 34, 5-Cyano-N-(2-(4-(3-(trifluoromethyl)benzoyl)piperazin-1-yl)ethyl)-1H-indole-3-carboxamide] the figure was 2.1%.
